Measurements reported in patent publication US20130149757A1 (OPTINOL, INC., priority 2011, published 2013).

Experiments:
[1] = Liquid-liquid extraction with corn oil (Karr extractor); assay type: physicochemical
Protocol: Two runs were conducted, each with a different flow rate.

[2] = system: strains of C. saccharoperbutylacetonium; conditions: Keis et al, 2001; cited from earlier work
[3] = system: C. saccharoperbutylacetonium N1-504; conditions: cited from earlier work
Novel organism = test: Carbohydrate utilization screen; assay type: cell-based, Clostridium beijerinckii sp. optinoii
Source text: A full carbohydrate screen was run to test whether the organism is actually N1-504. […] Rather it falls closer to (but is not identical with) C. beijerinckii.

[4] = system: C. saccharoperbutylacetonium; conditions: reported (Keis et al.); cited from earlier work
bacterial cells = conditions: cited from earlier work

Compound: CC(C)O [Isopropanol, isopropanol]
- % extraction, Run 1 ([1]; flow rate feed 26 ml/min): 23.0%
- % extraction, Run 2 ([1]; flow rate feed 39 ml/min): 21.5%
- extraction in this set up ([1]; summary comment): about 21%

Compound: glycogen
- Carbohydrate utilization, strains of C. saccharoperbutylacetonium generally [2]: will utilize

Compound: pectin
- Carbohydrate utilization, strains of C. saccharoperbutylacetonium generally [2]: will utilize

Compound: OC[C@@H](O)[C@H](O)[C@H](O)[C@@H](O)CO [dulcitol]
- Carbohydrate utilization, C. saccharoperbutylacetonium N1-504 [3]: will not utilize

Compound: OC[C@H]1O[C@@H](O[C@H]2[C@H](O)[C@@H](O)C(O)O[C@@H]2CO)[C@H](O)[C@@H](O)[C@H]1O (stereo partly drawn) [lactose]
- Carbohydrate utilization, strains of C. saccharoperbutylacetonium generally [2]: will utilize

Compound: O=C[C@H](O)[C@@H](O)[C@H](O)CO [Xylose]
- Carbohydrate utilization, Novel organism (Novel organism): does not grow
- Carbohydrate utilization, strains of C. saccharoperbutylacetonium generally [2]: will utilize

Compound: OC[C@@H](O)[C@@H](O)[C@H](O)[C@@H](O)CO [Sorbitol]
- Carbohydrate utilization, C. saccharoperbutylacetonium N1-504 [3]: will not utilize

Compound: CO[C@H]1/C=C/O[C@@]2(C)Oc3c(C)c(O)c4c(O)c(c(/C=N/N5CCN(C)CC5)c(O)c4c3C2=O)NC(=O)/C(C)=C\C=C\[C@H](C)[C@H](O)[C@@H](C)[C@@H](O)[C@@H](C)[C@H](OC(C)=O)[C@@H]1C [rifampin]
- resistance / inhibition of the organism [4]: resistant

Compound: OC[C@H]1O[C@@](CO)(O[C@H]2O[C@H](CO)[C@@H](O)[C@H](O)[C@H]2O)[C@@H](O)[C@@H]1O [sucrose]
- Carbohydrate utilization, strains of C. saccharoperbutylacetonium generally [2]: will utilize

Compound: dextrin
- Carbohydrate utilization, strains of C. saccharoperbutylacetonium generally [2]: will utilize

Compound: O=C[C@H](O)[C@@H](O)[C@H](O[C@@H]1O[C@H](CO)[C@@H](O)[C@H](O)[C@H]1O)[C@H](O)CO [Cellobiose]
- Carbohydrate utilization, strains of C. saccharoperbutylacetonium generally [2]: will utilize

Compound: inulin
- Carbohydrate utilization, strains of C. saccharoperbutylacetonium generally [2]: will utilize

Compound: starch
- Carbohydrate utilization, strains of C. saccharoperbutylacetonium generally [2]: will utilize

Compound: n-butanol
- inhibits growth (bacterial cells; […] butanol): ~100%
- inhibits cell growth and fermentation (bacterial cells; butanol at a concentration of 1 percent): about 20%

Compound: OC[C@H]1O[C@H](O[C@H]2[C@H](O)[C@@H](O)[C@H](O)O[C@@H]2CO)[C@H](O)[C@@H](O)[C@@H]1O [maltose]
- Carbohydrate utilization, strains of C. saccharoperbutylacetonium generally [2]: will utilize

Compound: O=C[C@@H](O)[C@H](O)[C@H](O)CO [Arabinose]
- Carbohydrate utilization, strains of C. saccharoperbutylacetonium generally [2]: will utilize

Compound: O[C@H]1[C@H](O)[C@@H](O)[C@H](O)[C@@H](O)[C@H]1O [inositol]
- Carbohydrate utilization, C. saccharoperbutylacetonium N1-504 [3]: will not utilize
